In PubChem BioAssay (NCI):
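These data come from cells grown in 96-well plates and exposed to compound for 48 hours at five concentrations. TGI is the concentration that stops growth completely.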

Tests used:
Assay in all cases: NCI-60 cell line screen, 48 h
[1] = system: SNB-75 CNS
[2] = system: U251 CNS
[3] = system: SK-OV-3 ovarian
[4] = system: IGROV1 ovarian
[5] = system: DU-145 prostate
[6] = system: PC-3 prostate
[7] = system: EKVX NSCLC
[8] = system: HOP-62 NSCLC
[9] = system: HL-60(TB) leukemia
[10] = system: 786-0 renal
[11] = system: SW-620 colon
[12] = system: UACC-62 melanoma
[13] = system: SF-539 CNS
[14] = system: CCRF-CEM leukemia
[15] = system: HS 578T breast
[16] = system: NCI-H23 lung
[17] = system: NCI-H460 lung
[18] = system: OVCAR-8 ovarian
[19] = system: HCC-2998 colon
[20] = system: MOLT-4 leukemia
[21] = system: K-562 leukemia
[22] = system: A549 NSCLC
[23] = system: MALME-3M melanoma
[24] = system: A498 renal
[25] = system: SN12C renal
[26] = system: T-47D breast
[27] = system: BT-549 breast
[28] = system: OVCAR-3 ovarian
[29] = system: SNB-19 CNS
[30] = system: CAKI-1 renal
[31] = system: NCI-H522 lung
[32] = system: SK-MEL-28 melanoma
[33] = system: SF-268 CNS
[34] = system: NCI-H226 lung
[35] = system: UO-31 renal
[36] = system: MDA-MB-435
[37] = system: ACHN renal
[38] = system: HT29 colon
[39] = system: SK-MEL-2 melanoma
[40] = system: SK-MEL-5 melanoma
[41] = system: UACC-257 melanoma
[42] = system: HOP-92 NSCLC
[43] = system: MCF7 breast
[44] = system: HCT-116 colon
[45] = system: RPMI-8226 leukemia
[46] = system: OVCAR-5 ovarian
[47] = system: SF-295 CNS
[48] = system: LOX IMVI melanoma
[49] = system: MDA-N
[50] = system: HCT-15 colon
[51] = system: NCI/ADR-RES ovarian
[52] = system: M14 melanoma
[53] = system: MDA-MB-231 breast
[54] = system: COLO 205 colon
[55] = system: TK-10 renal
[56] = system: KM12 colon
[57] = system: SR leukemia
[58] = system: OVCAR-4 ovarian
[59] = system: RXF 393 renal

## CC(C)(C)n1c(=O)n2n(c1=O)C1c3cccc4cccc(c34)C2C2c3cccc4cccc(c34)C1n1c(=O)n(C(C)(C)C)c(=O)n12
[1]
  TGI: > 100 µM
[2]
  TGI: > 100 µM
[3]
  TGI: > 100 µM
[4]
  TGI: > 100 µM
[5]
  TGI: > 100 µM
[6]
  TGI: > 100 µM
[7]
  TGI: > 100 µM
[8]
  TGI: > 100 µM
[9]
  TGI: > 100 µM
[10]
  TGI: > 100 µM
[11]
  TGI: > 100 µM
[12]
  TGI: > 100 µM
[13]
  TGI: > 100 µM
[14]
  TGI: > 100 µM
[15]
  TGI: > 100 µM
[16]
  TGI: > 100 µM
[17]
  TGI: > 100 µM
[18]
  TGI: > 100 µM
[19]
  TGI: > 100 µM
[20]
  TGI: > 100 µM
[21]
  TGI: > 100 µM
[22]
  TGI: > 100 µM
[23]
  TGI: > 100 µM
[24]
  TGI: > 100 µM
[25]
  TGI: > 100 µM
[26]
  TGI: > 100 µM
[27]
  TGI: > 100 µM
[28]
  TGI: 60 µM
[29]
  TGI: > 100 µM
[30]
  TGI: > 100 µM
[31]
  TGI: > 100 µM
[32]
  TGI: > 100 µM
[33]
  TGI: > 100 µM
[34]
  TGI: > 100 µM
[35]
  TGI: > 100 µM
[36]
  TGI: > 100 µM
[37]
  TGI: > 100 µM
[38]
  TGI: > 100 µM
[39]
  TGI: > 100 µM
[40]
  TGI: > 100 µM
[41]
  TGI: > 100 µM
[42]
  TGI: > 100 µM
[43]
  TGI: > 100 µM
[44]
  TGI: > 100 µM
[45]
  TGI: > 100 µM
[46]
  TGI: > 100 µM
[47]
  TGI: > 100 µM
[48]
  TGI: > 100 µM
[49]
  TGI: > 100 µM
[50]
  TGI: > 100 µM
[51]
  TGI: > 100 µM
[52]
  TGI: > 100 µM
[53]
  TGI: > 100 µM
[54]
  TGI: > 100 µM
[55]
  TGI: > 100 µM
[56]
  TGI: > 100 µM

## O=S(=O)(c1cc(Cl)ccc1Cl)N1CCN(c2cccc(Cl)c2)CC1
[1]
  TGI: > 100 µM
[2]
  TGI: > 100 µM
[4]
  TGI: > 100 µM
[5]
  TGI: > 100 µM
[6]
  TGI: > 100 µM
[7]
  TGI: > 100 µM
[8]
  TGI: > 100 µM
[9]
  TGI: > 100 µM
[10]
  TGI: > 100 µM
[11]
  TGI: > 100 µM
[13]
  TGI: > 100 µM
[14]
  TGI: > 100 µM
[15]
  TGI: > 100 µM
[16]
  TGI: > 100 µM
[17]
  TGI: > 100 µM
[18]
  TGI: > 100 µM
[19]
  TGI: > 100 µM
[20]
  TGI: > 100 µM
[21]
  TGI: > 100 µM
[22]
  TGI: > 100 µM
[57]
  TGI: > 100 µM
[23]
  TGI: > 100 µM
[24]
  TGI: > 100 µM
[25]
  TGI: > 100 µM
[26]
  TGI: > 100 µM
[27]
  TGI: > 100 µM
[28]
  TGI: > 100 µM
[29]
  TGI: > 100 µM
[58]
  TGI: > 100 µM
[30]
  TGI: > 100 µM
[31]
  TGI: > 100 µM
[32]
  TGI: > 100 µM
[33]
  TGI: > 100 µM
[34]
  TGI: > 100 µM
[35]
  TGI: > 100 µM
[59]
  TGI: > 100 µM
[37]
  TGI: > 100 µM
[38]
  TGI: > 100 µM
[40]
  TGI: > 100 µM
[41]
  TGI: > 100 µM
[42]
  TGI: > 100 µM
[43]
  TGI: > 100 µM
[44]
  TGI: > 100 µM
[45]
  TGI: > 100 µM
[46]
  TGI: > 100 µM
[47]
  TGI: > 100 µM
[48]
  TGI: > 100 µM
[49]
  TGI: > 100 µM
[50]
  TGI: > 100 µM
[53]
  TGI: > 100 µM
[55]
  TGI: > 100 µM
[56]
  TGI: > 100 µM

## COc1cc(/C=C2\N=C(c3ccccc3)N(c3nc4ccc(Sc5ccccc5)cc4[nH]3)C2=O)cc(OC)c1OC
[1]
  TGI: > 100 µM
[2]
  TGI: 43.9 µM
[3]
  TGI: > 100 µM
[4]
  TGI: > 100 µM
[5]
  TGI: 75.8 µM
[6]
  TGI: > 100 µM
[7]
  TGI: > 100 µM
[8]
  TGI: > 100 µM
[9]
  TGI: 37.8 µM
[10]
  TGI: 42.4 µM
[11]
  TGI: > 100 µM
[12]
  TGI: 38.7 µM
[14]
  TGI: > 100 µM
[15]
  TGI: > 100 µM
[16]
  TGI: 97.3 µM
[17]
  TGI: 51.4 µM
[18]
  TGI: > 100 µM
[19]
  TGI: 30.3 µM
[20]
  TGI: 78.5 µM
[21]
  TGI: 48.1 µM
[22]
  TGI: > 100 µM
[23]
  TGI: 40.3 µM
[24]
  TGI: 71.8 µM
[25]
  TGI: 92.4 µM
[26]
  TGI: > 100 µM
[27]
  TGI: 55.1 µM
[28]
  TGI: > 100 µM
[29]
  TGI: > 100 µM
[58]
  TGI: > 100 µM
[30]
  TGI: > 100 µM
[31]
  TGI: 48 µM
[32]
  TGI: 67.4 µM
[33]
  TGI: > 100 µM
[35]
  TGI: > 100 µM
[36]
  TGI: 23 µM
[59]
  TGI: > 100 µM
[37]
  TGI: 57.7 µM
[38]
  TGI: 48.4 µM
[39]
  TGI: 33 µM
[40]
  TGI: 26.3 µM
[41]
  TGI: 45.6 µM
[42]
  TGI: > 100 µM
[43]
  TGI: 45.9 µM
[44]
  TGI: 55.2 µM
[45]
  TGI: 56.4 µM
[46]
  TGI: > 100 µM
[47]
  TGI: 90.1 µM
[48]
  TGI: 61.7 µM
[49]
  TGI: 24.7 µM
[50]
  TGI: > 100 µM
[51]
  TGI: 74.6 µM
[52]
  TGI: 49.7 µM
[53]
  TGI: 50.3 µM
[54]
  TGI: 33 µM
[55]
  TGI: 57.4 µM
[56]
  TGI: 58.8 µM

## C=CCCCC1(C)CCNC1=S (stereo not given)
[1]
  TGI: > 100 µM
[2]
  TGI: > 100 µM
[3]
  TGI: > 100 µM
[4]
  TGI: > 100 µM
[5]
  TGI: > 100 µM
[6]
  TGI: > 100 µM
[7]
  TGI: > 100 µM
[8]
  TGI: > 100 µM
[10]
  TGI: > 100 µM
[11]
  TGI: > 100 µM
[12]
  TGI: > 100 µM
[13]
  TGI: > 100 µM
[15]
  TGI: > 100 µM
[16]
  TGI: > 100 µM
[17]
  TGI: > 100 µM
[18]
  TGI: > 100 µM
[19]
  TGI: > 100 µM
[20]
  TGI: > 100 µM
[21]
  TGI: > 100 µM
[22]
  TGI: > 100 µM
[24]
  TGI: > 100 µM
[25]
  TGI: > 100 µM
[26]
  TGI: > 100 µM
[27]
  TGI: > 100 µM
[28]
  TGI: > 100 µM
[29]
  TGI: > 100 µM
[58]
  TGI: > 100 µM
[30]
  TGI: > 100 µM
[31]
  TGI: > 100 µM
[32]
  TGI: > 100 µM
[33]
  TGI: > 100 µM
[35]
  TGI: > 100 µM
[36]
  TGI: > 100 µM
[59]
  TGI: > 100 µM
[37]
  TGI: > 100 µM
[38]
  TGI: > 100 µM
[39]
  TGI: > 100 µM
[40]
  TGI: > 100 µM
[41]
  TGI: > 100 µM
[42]
  TGI: > 100 µM
[43]
  TGI: > 100 µM
[44]
  TGI: > 100 µM
[45]
  TGI: > 100 µM
[46]
  TGI: > 100 µM
[47]
  TGI: > 100 µM
[49]
  TGI: > 100 µM
[50]
  TGI: > 100 µM
[52]
  TGI: > 100 µM
[53]
  TGI: > 100 µM
[54]
  TGI: > 100 µM
[55]
  TGI: > 100 µM
